Results from US12319655B2, “RAF kinase inhibitors and methods of use thereof” (Deciphera Pharmaceuticals, LLC, priority 2021, dated 2025).
Where two headings read alike, the source gives them in different places.

Assays:
A375 cells = assay: A375 Cell Proliferation Assay (1); type: cell-based; conditions: Homo sapiens, A-375
Summary of the method: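 Resazurin fluorescence (excitation 540 nm, emission 600 nm, after a further 5-6 h) gave IC50s from triplicate compound dilution series.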

[1] = molecular target: B-Raf kinase (SEQ. ID NO: 2) (Homo sapiens (Human), UniProt P15056); assay: Biochemical Assay for B-Raf (1); conditions: Table J
Chain of B-Raf kinase (SEQ. ID NO: 2) (P15056 416-766): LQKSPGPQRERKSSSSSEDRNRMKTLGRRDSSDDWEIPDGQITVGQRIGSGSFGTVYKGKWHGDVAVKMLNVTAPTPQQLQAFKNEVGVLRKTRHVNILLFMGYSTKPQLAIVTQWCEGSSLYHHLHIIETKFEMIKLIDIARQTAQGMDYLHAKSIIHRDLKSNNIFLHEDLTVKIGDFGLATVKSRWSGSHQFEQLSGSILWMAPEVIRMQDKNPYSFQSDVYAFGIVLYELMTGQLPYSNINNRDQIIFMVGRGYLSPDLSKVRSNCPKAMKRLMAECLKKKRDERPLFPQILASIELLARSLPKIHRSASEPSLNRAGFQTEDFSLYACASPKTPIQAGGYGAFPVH
Summary of the method: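 Continuous PK/LDH-coupled NADH oxidation assay, A340 read for 6 h at 30° C., with 0.13 nM B-Raf, 30.1 nM MEK substrate and 1 mM ATP in Tris pH 7.5, MgCl2, DTT, detergents, 1% DMSO. Rate taken from 4–5 h window; percent inhibition vs no-compound and known-inhibitor controls; four-parameter fit gives IC50.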

WM3928 cells = assay: WM3928 Cell Proliferation Assay (1); type: cell-based
Summary of the method: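 IC50 was derived from resazurin fluorescence (ex 540, em 600 nm) after a 6–7 h dye incubation. Before that, cells had 67–72 h of compound exposure at 37 °C, 5% CO2.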

H2405 cells = assay: H2405 Cell Proliferation Assay (1); type: cell-based; conditions: Homo sapiens, NCI-H2405
Summary of the method: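 Viability was read by resazurin reduction (ex 540 nm, em 600 nm; 5-6 h with 40 μL of 440 μM stock) after 67-72 h compound exposure at 37 °C.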

[2] = assay version (1), read-out: BRAF (1) IC50
[3] = biochemical assay (1), read-out: BRAF (1)

| Structure (SMILES) | IC50 (A375 cells) [nM] | IC50 [1, 2] [nM] | IC50 (WM3928 cells) [nM] | IC50 (H2405 cells) [nM] | IC50 [1, 3] [nM] |
| --- | --- | --- | --- | --- | --- |
| CC(=O)Nc1cc(-c2cc(-c3cc(NC(=O)c4ccnc(C(F)(F)F)c4)ccc3C)cc(OCCO)n2)ccn1 [Example 1, N-(3-(2′-acetamido-6-(2-hydroxyethoxy)-[2,4′-bipyridin]-4-yl)-4-methylphenyl)-2-(trifluoromethyl)isonicotinamide] | ≤ 100 | ≤ 100 |  |  |  |
| CC(=O)Nc1cc(-c2cc(-c3cc(NC(=O)c4ccnc(C(F)(F)F)c4)c(F)cc3C)ccn2)ccn1 [Example 2] | 100 to 500 | ≤ 100 |  |  |  |
| CC(=O)Nc1cc(-c2cc(-c3cc(NC(=O)c4cccc(C)c4)ccc3C)ccn2)ccn1 [Example 32] | 500 to 1000 | ≤ 100 |  |  |  |
| Cc1cc(F)c(NC(=O)c2ccnc(C(F)(F)F)c2)cc1-c1ccnc(-c2ccnc(NC=O)c2)c1 [Example 35] | 500 to 1000 | ≤ 100 |  |  |  |
| CC(=O)Nc1cc(-c2cc(-c3cc(NC(=O)c4ccnc(C(F)(F)F)c4)cnc3C)ccn2)ccn1 [Example 36] | 500 to 1000 | ≤ 100 |  |  |  |
| CC(=O)Nc1cc(-c2cc(-c3cc(NC(=O)c4cccc(C(F)(F)F)c4)cnc3C)ccn2)ccn1 [Example 37] | ≤ 100 | ≤ 100 |  |  |  |
| Cc1ccc(NC(=O)c2ccnc(C(F)(F)F)c2)cc1-c1ccnc(-c2ccnc(NC(=O)CC#N)c2)c1 [Example 39, N-(3-(2′-(2-cyanoacetamido)-[2,4′-bipyridin]-4-yl)-4-methylphenyl)-2-(trifluoromethyl)isonicotinamide] | 500 to 1000 | ≤ 100 |  |  |  |
| CNC(=O)c1cc(-c2cc(-c3cc(NC(=O)c4ccnc(C)c4)ccc3C)ccn2)ccn1 [Example 40] | 1000 to 10000 | ≤ 100 |  |  |  |
| Cc1ccc(NC(=O)c2ccnc(C(C)(C)C#N)c2)cc1-c1cncc(-c2ccnc3c2CC(=O)N3)n1 [Example 43] | 500 to 1000 | ≤ 100 | ≤ 100 |  |  |
| Cc1ccc(NC(=O)c2ccnc(C(F)(F)F)c2)cc1-c1ccnc(-c2ccnc(NC=O)c2)c1 [Example 46] | 1000 to 10000 | ≤ 100 |  |  |  |
| CNC(=O)c1cc(-c2cncc(-c3cc(NC(=O)c4ccnc(C(F)(F)F)c4)ccc3C)n2)ccn1 [Example 47] | 1000 to 10000 | ≤ 100 |  |  |  |
| Cc1cc(-c2cc(-c3cc(NC(=O)c4ccnc(C(C)(C)C#N)c4)ccc3C)ccn2)ccn1 [Example 49] | 500 to 1000 | 100 to 500 |  |  |  |
| COCC(=O)Nc1cc(-c2cccc(-c3cc(NC(=O)c4ccnc(C(F)(F)F)c4)ccc3C)c2)ccn1 [Example 57] | 100 to 500 | ≤ 100 |  |  |  |
| CC(=O)Nc1cc(-c2cc(-c3cc(NC(=O)c4ccnc(C)c4)ccc3C)ncn2)ccn1 [Example 59] | 1000 to 10000 | ≤ 100 |  |  |  |
| CNC(=O)c1cc(-c2cc(-c3cc(NC(=O)c4ccnc(C)c4)ccc3C)ncn2)ccn1 [Example 60] | 1000 to 10000 | 100 to 500 |  |  |  |
| COCC(=O)Nc1cc(-c2cc(-c3cc(NC(=O)c4ccnc(C(C)(C)C#N)c4)ccc3C)ccn2)ccn1 [Example 61] | ≤ 100 | ≤ 100 |  |  |  |
| Cc1ccc(NC(=O)c2ccnc(C(F)(F)F)c2)cc1-c1cccc(-c2ccnc(NC(=O)CC#N)c2)c1 [Example 62] | 100 to 500 | ≤ 100 |  |  |  |
| Cc1ccc(NC(=O)c2ccnc(C(C)(C)C#N)c2)cc1-c1ccnc(-c2ccnc(NC(=O)CC#N)c2)c1 [Example 63] | 100 to 500 | ≤ 100 | ≤ 100 |  |  |
| CC(=O)Nc1cc(-c2cccc(-c3cc(NC(=O)c4ccnc(C(F)(F)F)c4)cnc3C)c2)ccn1 [Example 64] | 100 to 500 | ≤ 100 |  |  |  |
| CC(=O)Nc1cc(-c2cc(-c3cc(NC(=O)c4ccnc(C(F)(F)F)c4)ccc3F)cc(C)n2)ccn1 [Example 65] | 500 to 1000 | ≤ 100 |  |  |  |

| Structure (SMILES) | IC50 (A375 cells) [nM] | IC50 [1, 2] [nM] | IC50 (WM3928 cells) [nM] | IC50 (H2405 cells) [nM] | IC50 [1, 3] [nM] |
| --- | --- | --- | --- | --- | --- |
| Cc1ncc(NC(=O)c2ccnc(C(F)(F)F)c2)cc1-c1cccc(-c2ccnc(NC(=O)C3CC3)c2)c1 [Example 70] | 100 to 500 | ≤ 100 |  |  |  |
| Cc1cc(-c2cc(NC(=O)c3ccnc(C(F)(F)F)c3)ccc2F)cc(-c2ccnc(NC(=O)C3CC3)c2)n1 [Example 72] | 1000 to 10000 | ≤ 100 | 100 to 500 |  |  |
| CNC(=O)c1cc(-c2cccc(-c3cc(NC(=O)c4ccnc(C(F)(F)F)c4)cnc3C)c2)ccn1 [Example 73] | 1000 to 10000 | 100 to 500 |  |  |  |
| CC(=O)Nc1cc(-c2cc(-c3cc(NC(=O)c4ccnc(C(C)(C)C#N)c4)c(F)cc3C)ccn2)ccn1 [Example 75] | ≤ 100 | ≤ 100 |  |  |  |
| Cc1cc(F)c(NC(=O)c2ccnc(C(C)(C)C#N)c2)cc1-c1ccnc(-c2ccnc(NC(=O)C3CC3)c2)c1 [Example 76] | ≤ 100 | ≤ 100 |  |  |  |
| CNC(=O)c1cc(-c2nccc(-c3cc(NC(=O)c4ccnc(C(C)(C)C#N)c4)ccc3C)n2)ccn1 [Example 78] | ≤ 100 | 100 to 500 | ≤ 100 |  |  |
| CC(=O)Nc1cc(-c2cccc(-c3cc(NC(=O)c4ccnc(C(C)(C)C#N)c4)ccc3C)c2)ncn1 [Example 79] | ≤ 100 | ≤ 100 |  |  |  |
| CNC(=O)c1cc(-c2cncc(-c3cc(C(=O)Nc4cnn(C(C)C)c4)ccc3C)n2)ccn1 [Example 81] | 1000 to 10000 | 100 to 500 |  | 1000 to 10000 |  |
| CC(=O)Nc1cc(-c2cc(-c3cc(NC(=O)c4ccnc(C(F)(F)F)c4)ccc3C)nc(C)n2)ccn1 [Example 83] | 100 to 500 | ≤ 100 |  |  |  |
| CC(=O)Nc1cc(-c2cc(-c3cc(NC(=O)c4ccnc(C(F)(F)F)c4)ccc3C)ncn2)ccn1 [Example 84] | 100 to 500 | ≤ 100 |  |  |  |
| CC(=O)Nc1cc(-c2cncc(-c3cc(C(=O)Nc4cnn(C(C)C)c4)ccc3C)n2)ccn1 [Example 87] | 500 to 1000 | ≤ 100 |  |  |  |
| COCC(=O)Nc1cc(-c2nccc(-c3cc(NC(=O)c4ccnc(C(C)(C)C#N)c4)ccc3C)n2)ccn1 [Example 88] | ≤ 100 | ≤ 100 | ≤ 100 |  |  |
| CC(=O)Nc1cc(-c2cc(-c3cc(NC(=O)c4ccnc(C(C)(C)C#N)c4)ccc3C)nc(C)n2)ccn1 [Example 89] | 100 to 500 | 100 to 500 | ≤ 100 |  |  |
| Cc1ccc(NC(=O)c2ccnc(C(F)(F)F)c2)cc1-c1cncc(-c2ccnc(N)c2)n1 [Example 90] | 1000 to 10000 | 100 to 500 |  |  |  |
| CC(=O)Nc1cc(-c2ccnc(-c3cc(NC(=O)c4ccnc(C(F)(F)F)c4)ccc3C)n2)ccn1 [Example 92] | 100 to 500 | ≤ 100 |  |  |  |
| Cc1ccc(NC(=O)c2cn(C(C)C)nc2C)cc1-c1cc(-c2ccnc(NC(=O)C3CC3)c2)cnn1 [Example 373] | 1000 to 10000 |  |  | 1000 to 10000 | ≤ 100 |
| CNC(=O)c1cc(-c2cnnc(-c3cc(NC(=O)CCC4(F)CC4)cnc3C)c2)ccn1 [Example 374] | 1000 to 10000 |  |  | 1000 to 10000 | 1000 to 10000 |
| Cc1ccc(NC(=O)c2cnn(CC(F)(F)F)c2)cc1-c1cncc(-c2ccnc(C(N)=O)c2)c1 [Example 381] | 1000 to 10000 |  |  | 1000 to 10000 | 100 to 500 |
| CNC(=O)c1cc(-c2cncc(-c3cc(NC(=O)c4cnn(CC(F)(F)F)c4)ccc3C)c2)ncn1 [Example 382] | 1000 to 10000 |  |  | 1000 to 10000 | 100 to 500 |
| CNC(=O)c1cc(-c2cncc(-c3cc(NC(=O)Cn4cc(C(C)C)nn4)ccc3C)c2)ncn1 [Example 383] | 1000 to 10000 |  |  | 1000 to 10000 | 100 to 500 |
